Results reported in patent US5053418A, “Antiprotozoal agents” (Burroughs Wellcome Co., priority 1983, dated 1991).

Assays:
P.falciparum = assay: In vitro activity against P.falciparum: inhibition of 3H-adenosine/3H-hypoxanthine incorporation (modified Desjardins); format: cell-based; conditions: for ED50 for naphthoquinone / ED50 for Clopidol (4-pyridinol): 2580 min
Method: Each of the two compounds to be tested were dissolved in ethanol at a concentration of 10 mg/L and serially diluted with RPMI 1640 medium and 10% (v/v) human plasma in microtitration plates. P.falciparum-parasitised and fresh blood cells were added together with ^3 H-adenosine or ^3 H-hypoxanthinein RPMI 1640 medium and 10% human plasma. The cultures were then incubated at 37° C. for 43 hours, harvested and the particulate contents collected on glass fibre filter papers which were washed copiously with water using a Cooke Microtiter System (Dynatech Labs. Europe); the filter papers were dried and the radioactivity measured using a scintillation counter. Infected, untreated and uninfected cultures were included as controls. Percent inhibition was correlated with dose to provide an IC50 for each drug alone.
For subsequent combination experiments the individual drug solutions and mixtures thereof were serially diluted.
By the method of Example 1 the effect of a number of naphthoquinone/clopidol (4-pyridinol) combinations on P.falciparum in vitro were determined.

in vivo = conditions: rat, acute oral, rats
Method: The acute oral LD50 's of compounds of formula (I) in rats were determined by standard techniques.

P.yoelii = assay: In vivo effect on P.yoelii in mice (inhibition of parasitaemia)
Method: The naphthoquinone and the pyridinol were each suspended in 0.25% (w/v) celacol in water by milling for 16-24 hours at 26° C. The suspensions were subsequently serially diluted with 0.25% (w/v) celacol in water. At time 0, 0.1 ml of a suspension of 10^7 P.yoelii-parasitised red blood cells/ml of phosphate buffered saline were injected intravenously into 15-20 g mice through a tail vein. Groups of 5 mice per treatment were dosed orally at times 6, 22, 30, 46, 54, 70 and 78 hours with 0.2 ml of the drug suspension. Tail-blood smears were taken at 96 hours, stained with Giemsa and the percentage of red blood cells infected determined and compared to untreated, infected controls. Percent inhibition was correlated with dose to provide ED50 values for each drug alone. In subsequent experiments dilutions of the two drugs, alone and in combination were used, and the percentage inhibition of parasitaemia and ED50 values (of each drug at fixed concentrations of the other) were determined. The results are shown respectively in Tables V and VI. A number of combinations of clopidol (4-pyridinol) and naphthoquinones were assayed and compared with each drug alone for their antimalarial effect against P.yoelii in vivo by the method of Example 4.

CC(C)(C)C1CCC(C2=C(Cl)C(=O)c3ccccc3C2=O)CC1 (centres unmarked) [2-(4-t-butylcyclohexyl)-3-chloro-1,4-naphthoquinone]
ED50 for naphthoquinone (P.falciparum; fixed clopidol 0.000 mg/L (alone)): 0.851 µg/mL | ED50 for naphthoquinone (P.falciparum; fixed clopidol 0.00625 mg/L): 0.699 µg/mL | ED50 for naphthoquinone (P.falciparum; fixed clopidol 0.0125 mg/L): 0.401 µg/mL | ED50 for naphthoquinone (P.falciparum; fixed clopidol 0.0250 mg/L): 0.478 µg/mL | ED50 for naphthoquinone (P.falciparum; fixed clopidol 0.0500 mg/L): 0.447 µg/mL | ED50 for naphthoquinone (P.falciparum; fixed clopidol 0.100 mg/L): 0.287 µg/mL | ED50 for naphthoquinone (P.falciparum; fixed clopidol 0.200 mg/L): 0.198 µg/mL | ED50 for naphthoquinone (P.falciparum; fixed clopidol 0.400 mg/L): 0.155 µg/mL | ED50 for naphthoquinone (P.falciparum; fixed clopidol 0.800 mg/L): 0.0801 µg/mL | ED50 for naphthoquinone (P.falciparum; fixed clopidol 1.60 mg/L): 0.0303 µg/mL | ED50 for naphthoquinone (P.falciparum; fixed clopidol 3.20 mg/L): 0.0075 µg/mL

CC(C)(C)C1CCC(C2=C(O)C(=O)c3ccccc3C2=O)CC1 (centres unmarked) [2-(4-t-butylcyclohexyl)-3-hydroxy-1,4-naphthoquinone]
inhibition at 15.6 pg/mL (P.falciparum; Plasmodium falciparum, naphthoquinone alone, 0.0000156 mg/L): 0.5% | inhibition at 32.5 pg/mL (P.falciparum; Plasmodium falciparum, naphthoquinone alone, 0.0000325 mg/L): 2% | % inhibition (P.falciparum; naphthoquinone alone, 0.00003125 mg/L): 5% | LD50 (in vivo): > 1000 mg/kg

CCCCCCCCCCCCCC1=C(O)C(=O)c2ccccc2C1=O [(CH2)12 Me]
inhibition at 0.0078 µg/mL (P.falciparum; Plasmodium falciparum, naphthoquinone alone, 0.0078 mg/L): 4% | inhibition at 0.0156 µg/mL (P.falciparum; Plasmodium falciparum, naphthoquinone alone, 0.0156 mg/L): 10%

Cc1nc(C)c(Cl)c(O)c1Cl [Clopidol, 3,5-dichloro-2,6-dimethyl-4-pyridinol, reference compound]
inhibition at 0.8 µg/mL (P.falciparum; Plasmodium falciparum, 4-pyridinol alone, 0.80 mg/L): 44% | inhibition at 1.6 µg/mL (P.falciparum; Plasmodium falciparum, 4-pyridinol alone, 1.6 mg/L): 55% | inhibition at 3.2 µg/mL (P.falciparum; Plasmodium falciparum, 4-pyridinol alone, 3.2 mg/L): 74% | % inhibition (P.falciparum; clopidol (4-pyridinol) alone, 0.10 mg/L, listed as 4-pyridinol): 24% | % inhibition (P.falciparum; clopidol (4-pyridinol) alone, 0.20 mg/L, listed as 4-pyridinol): 18% | % inhibition (P.falciparum; clopidol (4-pyridinol) alone, 0.40 mg/L, listed as 4-pyridinol): 22% | ED50 for Clopidol (4-pyridinol) (P.falciparum; fixed naphthoquinone 0.0 mg/L (alone)): 1.18 (1.44 to 0.980) mg/L | ED50 for Clopidol (4-pyridinol) (P.falciparum; fixed naphthoquinone 0.00781 mg/L): 1.63 mg/L | ED50 for Clopidol (4-pyridinol) (P.falciparum; fixed naphthoquinone 0.0156 mg/L): 0.128 mg/L | ED50 for Clopidol (4-pyridinol) (P.falciparum; fixed naphthoquinone 0.0313 mg/L): 2.57 mg/L | ED50 for Clopidol (4-pyridinol) (P.falciparum; fixed naphthoquinone 0.0625 mg/L): 1.03 (14.2 to 0.405) mg/L | ED50 for Clopidol (4-pyridinol) (P.falciparum; fixed naphthoquinone 0.125 mg/L): 0.578 mg/L | ED50 for Clopidol (4-pyridinol) (P.falciparum; fixed naphthoquinone 0.250 mg/L): 0.074 mg/L | ED50 for Clopidol (4-pyridinol) (P.falciparum; fixed naphthoquinone 0.500 mg/L): 0.052 mg/L | ED50 for Clopidol (4-pyridinol) (P.falciparum; fixed naphthoquinone 1.00 mg/L): 0.0092 mg/L | ED50 for Clopidol (4-pyridinol) (P.falciparum; fixed naphthoquinone 2.00 mg/L): 0.00097 mg/L | ED50 for Clopidol (4-pyridinol) (P.falciparum; fixed naphthoquinone 4.00 mg/L): 0.00012 mg/L | inhibition in vivo at 1.9 mg/kg (P.yoelii; Plasmodium yoelii, po, 96 h, clopidol alone, 1.9 mg/Kg/dose, 7 doses): 6% | inhibition in vivo at 2.5 mg/kg (P.yoelii; Plasmodium yoelii, po, 96 h, clopidol alone, 2.5 mg/Kg × 7): 0% | inhibition in vivo at 3.7 mg/kg (P.yoelii; Plasmodium yoelii, po, 96 h, clopidol alone, 3.7 mg/Kg/dose, 7 doses): 17% | inhibition in vivo at 7.5 mg/kg (P.yoelii; Plasmodium yoelii, po, 96 h, clopidol alone, 7.5 mg/Kg/dose, 7 doses): 13% | inhibition in vivo at 13 mg/kg (P.yoelii; Plasmodium yoelii, po, 96 h, clopidol alone, 13 mg/Kg × 7): 5% | inhibition in vivo at 15 mg/kg (P.yoelii; Plasmodium yoelii, po, 96 h, clopidol alone, 15 mg/Kg/dose, 7 doses): 34% | inhibition in vivo at 30 mg/kg (P.yoelii; Plasmodium yoelii, po, 96 h, clopidol alone, 30 mg/Kg/dose, 7 doses): 61% | ED50 for Clopidol (4-pyridinol) (P.yoelii; fixed naphthoquinone 0.000 (alone)): 22.5 (27.6 to 19.4) mg/Kg/dose | ED50 for Clopidol (4-pyridinol) (P.yoelii; fixed naphthoquinone 0.019): 13.8 (21.5 to 10.7) mg/Kg/dose | ED50 for Clopidol (4-pyridinol) (P.yoelii; fixed naphthoquinone 0.0375): 5.14 (6.22 to 4.23) mg/Kg/dose | ED50 for Clopidol (4-pyridinol) (P.yoelii; fixed naphthoquinone 0.075): 1.87 (2.45 to 1.30) mg/Kg/dose | ED50 for Clopidol (4-pyridinol) (P.yoelii; fixed naphthoquinone 0.15): 0.522 (0.946 to 0.0356) mg/Kg/dose

Cc1nc(C)c(Br)c(O)c1Br [X = Br, R^3 = Me, 3,5-dibromo-2,6-dimethyl-4-pyridinol]
inhibition at 0.125 µg/mL (P.falciparum; Plasmodium falciparum, 4-pyridinol analogue alone, 0.125 mg/L): 2% | inhibition at 0.25 µg/mL (P.falciparum; Plasmodium falciparum, 4-pyridinol analogue alone, 0.25 mg/L): 14%

CCCc1nc(CCC)c(Br)c(O)c1Br [X = Br, R^3 = Pr, 3,5-dibromo-2,6-dipropyl-4-pyridinol]
inhibition at 3.125 µg/mL (P.falciparum; Plasmodium falciparum, 4-pyridinol analogue alone, 3.125 mg/L): 9% | inhibition at 6.25 µg/mL (P.falciparum; Plasmodium falciparum, 4-pyridinol analogue alone, 6.25 mg/L): 15%

CCCc1nc(CCC)c(Cl)c(O)c1Cl [X = Cl, R^3 = Pr, 3,5-dichloro-2,6-dipropyl-4-pyridinol]
inhibition at 0.625 µg/mL (P.falciparum; Plasmodium falciparum, 4-pyridinol analogue alone, 0.625 mg/L): 12% | inhibition at 1.25 µg/mL (P.falciparum; Plasmodium falciparum, 4-pyridinol analogue alone, 1.25 mg/L): 24%

CC(C)(C)C1CCC(C2=C(Cl)C(=O)c3ccccc3C2=O)CC1 (centres unmarked) [drawing 6, 2-(4-t-butylcyclohexyl)-3-chloro-1,4-naphthoquinone]
% inhibition (P.falciparum; naphthoquinone alone, 0.125 mg/L): 14% | % inhibition (P.falciparum; naphthoquinone alone, 0.25 mg/L): 17%

CC(C)(C)C1CCC(C2=C(O)C(=O)c3ccccc3C2=O)CC1 (centres unmarked) [drawing 10]
inhibition at 6.25 pg/mL (P.falciparum; Plasmodium falciparum, naphthoquinone alone, 0.00000625 mg/L): 17% | inhibition at 12.5 pg/mL (P.falciparum; Plasmodium falciparum, naphthoquinone alone, 0.0000125 mg/L): 13%
